From US8637523B2, “Compounds for the reduction of beta-amyloid production” (Bristol-Myers Squibb Company, priority 2010, dated 2014) come the findings set out here.

What is called IC50 is the concentration at which inhibition is half-maximal.

For this experiment, the system named is Aβ42. Description: Cellular assay for inhibition of Aβ1-42 production (H4 APP751 SWE clone 8.20). The format is cell-based. Conditions: H4 APP751 SWE clone 8.20 cells, 19 h incubation. In outline: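 Compound-treated cells were incubated 19 h at 37 °C in 5% CO2. Aβ42 in the cell plate was detected overnight at 4 °C with an Aβ42 neoepitope antibody (565, Wallac-labelled, 0.8 ng/well) plus N-terminal antibody 26D6 (APC, 75 ng/well) in 40 mM Tris-HCl pH 7.4, 0.2% BSA. IC50s came from curve fitting.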

Setting [1] is: read-out: Activity Rating (Aβ42 cellular IC50), class symbol.
Where [2] appears, read: 19 h, unit inferred, read-out: Activity Rating (Aβ42 cellular IC50), numeric value.
Where [3] appears, read: unit inferred, read-out: Activity Rating (Aβ42 cellular IC50), numeric value.
Where [4] appears, read: 19 h, read-out: Activity Rating (Aβ42 cellular IC50), class symbol.

Like-named read-outs stand apart in the source and are kept apart here.

Regarding `Fc1ccc(C2CCc3c4nc(nc32)Nc2ccc(-n3cnc(Cl)c3)c(c2)OCC=CCN4)c(F)c1` (stereo not shown) [Example 14A, (11Z)-7-(4-chloro-1H-imidazol-1-yl)-18-(2,4-difluorophenyl)-10,13,14,16,17,18-hexahydro-15,2-(azeno)-8,4-(metheno)cyclopenta[h][1,6,10,12]oxatriazacycloheptadecine], the IC50 under setting [1] is under 0.01 µM. On to `Clc1cn(-c2ccc3cc2OCCCNc2nc(nc4c2CCC4c2ccccc2)N3)cn1` (stereo not shown) [Example 9B, 7-(4-chloro-1H-imidazol-1-yl)-17-phenyl-11,12,13,15,16,17-hexahydro-10H-14,2-(azeno)-8,4-(metheno)cyclopenta[g][1,5,9,11]oxatriazacyclohexadecine], for which the IC50 under setting [2] amounted to 0.017 µM.

Turning to “(11E)-7-(3-methyl-1H-1,2,4-triazol-1-yl)-18-phenyl-10,13,14,16,17,18-hexahydro-15,2-(azeno)-8,4-(metheno)cyclopenta[h][1,6,10,12]oxatriazacycloheptadecine [Example 40B]”, under setting [3], the IC50 turned out to be 0.025 µM. As for `Cc1ncn(-c2ccc3cc2OCCNCCNc2nc(nc4c2CCC4c2ccc(F)cc2)N3)n1` (single isomer, unassigned) [Example 55B, 19-(4-fluorophenyl)-7-(3-methyl-1H-1,2,4-triazol-1-yl)-11,12,13,14,15,17,18,19-octahydro-10H-16,2-(azeno)-8,4-(metheno)cyclopenta[i][1,4,7,11,13]oxatetraazacyclooctadecine], the IC50 under setting [4] was in the range of 0.01 to 0.1 µM. On to `Cc1ncn(-c2ccc3cc2OCCNCCNc2nc(nc4c2CCC4c2ccc(F)cc2)N3)n1` (single isomer, unassigned) [Example 55A, 19-(4-fluorophenyl)-7-(3-methyl-1H-1,2,4-triazol-1-yl)-11,12,13,14,15,17,18,19-octahydro-10H-16,2-(azeno)-8,4-(metheno)cyclopenta[i][1,4,7,11,13]oxatetraazacyclooctadecine], for which the IC50 under setting [1] fell in the range of 0.01 to 0.1 µM. As for `Fc1ccc(C2CCc3c4nc(nc32)Nc2ccc(-n3cnc(Cl)c3)c(c2)OCC=CCN4)c(F)c1` (stereo not shown) [Example 15B, (11E)-7-(4-chloro-1H-imidazol-1-yl)-18-(2,4-difluorophenyl)-10,13,14,16,17,18-hexahydro-15,2-(azeno)-8,4-(metheno)cyclopenta[h][1,6,10,12]oxatriazacycloheptadecine], under setting [3], the IC50 came to 0.023 µM. Regarding `CN1CCCOc2cc(ccc2-n2cnc(Cl)c2)Nc2nc3c(c1n2)CCC3c1ccc(F)cc1F` (stereo not shown) [Example 20B, 7-(4-chloro-1H-imidazol-1-yl)-17-(2,4-difluorophenyl)-13-methyl-11,12,13,15,16,17-hexahydro-10H-14,2-(azeno)-8,4-(metheno)cyclopenta[g][1,5,9,11]oxatriazacyclohexadecine], the IC50 under setting [2] was found to be 0.011 µM. `CN1CCCOc2cc(ccc2C#N)Nc2nc3c(c1n2)CCC3c1ccccc1` (stereo not drawn) [Example 31A, 7-cyano-β-methyl-17-phenyl-11,12,13,15,16,17-hexahydro-10H-14,2-(azeno)-8,4-(metheno)cyclopenta[g][1,5,9,11]oxatriazacyclohexadecine]: under setting [4], the IC50 lay within 0.01 to 0.1 µM. As to `N#Cc1ccc2cc1OCC=CCNc1nc(nc3c1CCC3c1ccccc1)N2` (stereo not shown) [Example 21A, (11Z)-7-cyano-18-phenyl-10,13,14,16,17,18-hexahydro-15,2-(azeno)-8,4-(metheno)cyclopenta[h][1,6,10,12]oxatriazacycloheptadecine], under setting [3], the IC50 was determined as 0.0078 µM. As for `Cc1ncn(-c2ccc3cc2OCCCN(C)c2nc(nc4c2CCC4c2ccccc2)N3)n1` (stereo not shown) [Example 60B, 13-methyl-7-(3-methyl-1H-1,2,4-triazol-1-yl)-17-phenyl-11,12,13,15,16,17-hexahydro-10H-14,2-(azeno)-8,4-(metheno)cyclopenta[g][1,5,9,11]oxatriazacyclohexadecine], the concentration for half-maximal inhibition (IC50) under setting [4] lay in the range of 0.01 to 0.1 µM. As to `CN1CCCCOc2cc(ccc2-n2cnc(Cl)c2)Nc2nc3c(c1n2)CCC3c1ccccc1` (stereo not shown) [Example 13B, 7-(4-chloro-1H-imidazol-1-yl)-14-methyl-18-phenyl-10,11,12,13,14,16,17,18-octahydro-15,2-(azeno)-8,4-(metheno)cyclopenta[h][1,6,10,12]oxatriazacycloheptadecine], the IC50 under setting [2] came out at 0.026 µM. Regarding `Cc1ncnn1-c1ccc2cc1OCC=CCNc1nc(nc3c1CCC3c1ccccc1)N2` (stereo not shown) [Example 42B, (11Z)-7-(5-methyl-1H-1,2,4-triazol-1-yl)-18-phenyl-10,13,14,16,17,18-hexahydro-15,2-(azeno)-8,4-(metheno)cyclopenta[h][1,6,10,12]oxatriazacycloheptadecine], under setting [1], the IC50 is 0.01 to 0.1 µM. Consider `CN1C/C=C\COc2cc(ccc2C#N)Nc2nc3c(c1n2)CCC3c1ccc(F)cc1F` (stereo not shown) [Example 28B, (11Z)-7-cyano-18-(2,4-difluorophenyl)-14-methyl-10,13,14,16,17,18-hexahydro-15,2-(azeno)-8,4-(metheno)cyclopenta[h][1,6,10,12]oxatriazacycloheptadecine], for which the IC50 under setting [4] lay within 0.1 to 1 µM.

Turning to `N#Cc1ccc2cc1OCCCNc1nc(nc3c1CCC3c1ccc(F)cc1F)N2` (stereo not shown) [Example 33A, 7-cyano-17-(2,4-difluorophenyl)-11,12,13,15,16,17-hexahydro-10H-14,2-(azeno)-8,4-(metheno)cyclopenta[g][1,5,9,14]oxatriazacyclohexadecine], the IC50 under setting [4] lay in the range of 0.01 to 0.1 µM. On the same count and under the same terms, the value for `Clc1cn(-c2ccc3cc2OC/C=C/CCNc2nc(nc4c2CCC4c2ccccc2)N3)cn1` (stereo not shown) [Example 5B, (11E)-7-(4-chloro-1H-imidazol-1-yl)-19-phenyl-3,10,13,14,15,17,18,19-octahydro-2,16-(azeno)-8,4-(metheno)cyclopenta[j][1,7,9,13]oxatriazacyclooctadecine] was 0.01 to 0.1 µM; that for `CC1C/C=C\COc2cc(ccc2-n2cnc(Cl)c2)Nc2nc(c3c(n2)C(c2ccccc2)CC3)N1` (stereo not shown) [Example 6B, (11Z)-7-(4-chloro-1H-imidazol-1-yl)-14-methyl-19-phenyl-3,10,13,14,15,17,18,19-octahydro-2,16-(azeno)-8,4-(metheno)cyclopenta[j][1,7,9,13]oxatriazacyclooctadecine] was 0.01 to 0.1 µM. On to `Cc1ncn(-c2ccc3cc2OC/C=C/CNc2nc(nc4c2CCC4c2ccc(F)cc2F)N3)n1` (stereo not shown) [Example 52B, (11E)-18-(2,4-difluorophenyl)-7-(3-methyl-1H-1,2,4-triazol-1-yl)-10,13,14,16,17,18-hexahydro-15,2-(azeno)-8,4-(metheno)cyclopenta[h][1,6,10,12]oxatriazacycloheptadecine], for which the IC50 under setting [1] lay in the range of 0.01 to 0.1 µM. As for `Cc1ncnn1-c1ccc2cc1OCCCCN(C)c1nc(nc3c1CCC3c1ccccc1)N2` (stereo not shown) [Example 48B, 14-methyl-7-(5-methyl-1H-1,2,4-triazol-1-yl)-18-phenyl-10,11,12,13,14,16,17,18-octahydro-15,2-(azeno)-8,4-(metheno)cyclopenta[h][1,6,10,12]oxatriazacycloheptadecine], the IC50 under setting [2] was determined as 0.088 µM. In the case of “(11E)-7-cyano-18-(2,4-difluorophenyl)-10,13,14,16,17,18-hexahydro-15,2-(azeno)-8,4-(metheno)cyclopenta[h][1,6,10,12]oxatriazacycloheptadecine [Example 25B]”, the IC50 under setting [3] came out at 0.053 µM. Regarding `Cc1ncn(-c2ccc3cc2OCC(O)CCNc2nc(nc4c2CCC4c2ccc(F)cc2)N3)n1` (single isomer, unassigned) [Example 72B, 18-(4-fluorophenyl)-7-(3-methyl-1H-1,2,4-triazol-1-yl)-10,11,12,13,14,16,17,18-octahydro-15,2-(azeno)-8,4-(metheno)cyclopenta[h][1,6,10,12]oxatriazacycloheptadecin-11(3H)-ol], the IC50 under setting [4] is under 0.01 µM. On the same count and under the same terms, the same measure for `CC1C/C=C/COc2cc(ccc2-n2cnc(Cl)c2)Nc2nc(c3c(n2)C(c2ccccc2)CC3)N1` (stereo not shown) [Example 7B, (11E)-7-(4-chloro-1H-imidazol-1-yl)-14-methyl-19-phenyl-3,10,13,14,15,17,18,19-octahydro-2,16-(azeno)-8,4-(metheno)cyclopenta[j][1,7,9,13]oxatriazacyclooctadecine]: 0.1 to 1 µM; for `Cc1ncn(-c2ccc3cc2OCCCCNc2nc(nc4c2CN(C)CC4c2ccc(F)cc2)N3)n1` (racemic) [Example 70B, 19-(4-fluorophenyl)-17-methyl-7-(3-methyl-1H-1,2,4-triazol-1-yl)-11,12,13,14,16,17,18,19-octahydro-10H-15,2-(azeno)-8,4-(metheno)pyrido[3,4-h][1,6,10,12]oxatriazacycloheptadecine]: under 0.01 µM. Consider `Clc1cn(-c2ccc3cc2OC/C=C\CCc2nc(nc4c2CCC4c2ccccc2)N3)cn1` (single isomer, unassigned) [Example 16B, (11Z)-7-(4-chloro-1H-imidazol-1-yl)-18-phenyl-10,13,14,16,17,18-hexahydro-15,2-(azeno)-8,4-(metheno)cyclopenta[h][1,10,12]oxadiazacycloheptadecine], for which the IC50 under setting [1] was 0.01 to 0.1 µM.

Regarding `CN1CCCOc2cc(ccc2C#N)Nc2nc3c(c1n2)CCC3c1ccc(F)cc1F` (stereo not shown) [Example 35A, 7-cyano-17-(2,4-difluorophenyl)-13-methyl-11,12,13,15,16,17-hexahydro-10H-14,2-(azeno)-8,4-(metheno)cyclopenta[g][1,5,9,11]oxatriazacyclohexadecine], the IC50 under setting [4] was 0.01 to 0.1 µM. As for “(11Z)-7-cyano-18-phenyl-10,13,14,16,17,18-hexahydro-15,2-(azeno)-8,4-(metheno)cyclopenta[h][1,10,12]oxadiazacycloheptadecine [Example 36A]”, the IC50 under setting [1] is 0.1 to 1 µM.
